Results taken from ChEMBL document CHEMBL3885861, “Open TG-GATES”.

Organism: Rattus norvegicus
Test: Open TG-GATES - Regimen: Daily Repeat
Assay type: toxicity, organism-based, Sprague-Dawley
Design: regimen Daily Repeat, gender Male, age 6 weeks
Conditions: in vivo, po, 300 mg/kg, route gavage, dose level High; for APTT / Bas / Eos / Fbg / Hb / Ht / Lym / MCH / MCHC / MCV / Mono / Neu / PT / Plat / RBC / Ret / WBC: tissue Blood; for KIDNEY_L / KIDNEY_R / KIDNEY_TOTAL: tissue Kidney; for LIVER: tissue Liver; for A/G / ALP / ALT / AST / BUN / CRE / Ca / Cl / DBIL / GLC / IP / K / LDH / Na / PL / RALB / TBIL / TC / TG / TP / gamma-GTP: tissue Plasma

`Brc1ccccc1` [BROMOBENZENE] was tested, and the TERMINAL_BW (72 h, time 3 day) was 204.3 g, the APTT (72 h, time 3 day) was 21.2 s and the Bas (72 h, time 3 day) was 0.6%. For the same compound, the Eos (72 h, time 3 day) was 1%, the Fbg (72 h, time 3 day) was 259.2 mg/dL and the Hb (72 h, time 3 day) was 13.1 g/dL. It also gave a Ht (72 h, time 3 day) of 38.3%, a Lym (72 h, time 3 day) of 78.4% and an MCH (72 h, time 3 day) of 21.2 pg. It also gave an MCHC (72 h, time 3 day) of 34.2%, an MCV (72 h, time 3 day) of 62.1 fL and a Mono (72 h, time 3 day) of 3%. The Neu (72 h, time 3 day) was 16.4%, the PT (72 h, time 3 day) was 12 s and the Plat (72 h, time 3 day) was 109.8 x10_4/uL. For the same compound, the RBC (72 h, time 3 day) was 616.6 x10_4/ul, the Ret (72 h, time 3 day) was 4.2% and the WBC (72 h, time 3 day) was 105.2 x10_2/uL. It also gave a KIDNEY_L (72 h, time 3 day) of 0.9 g, a KIDNEY_R (72 h, time 3 day) of 0.9 g and a KIDNEY_TOTAL (72 h, time 3 day) of 1.8 g. It also gave an LIVER (72 h, time 3 day) of 12 g, an A/G (72 h, time 3 day) of 0.9 and an ALP (72 h, time 3 day) of 1821.4 IU/L. For the same compound, the ALT (72 h, time 3 day) was 70.8 IU/L, the AST (72 h, time 3 day) was 110.6 IU/L and the BUN (72 h, time 3 day) was 12.4 mg/dL. The CRE (72 h, time 3 day) was 0.2 mg/dL, the Ca (72 h, time 3 day) was 10.5 mg/dL and the Cl (72 h, time 3 day) was 104.8 meq/L. The DBIL (72 h, time 3 day) was 0.02 mg/dL, the GLC (72 h, time 3 day) was 177.6 mg/dL and the IP (72 h, time 3 day) was 7 mg/dL. It also gave a K (72 h, time 3 day) of 4.1 meq/L, an LDH (72 h, time 3 day) of 124.2 IU/L and a Na (72 h, time 3 day) of 141.8 meq/L. It also gave a PL (72 h, time 3 day) of 184.6 mg/dL, an RALB (72 h, time 3 day) of 2.6 g/dL and a TBIL (72 h, time 3 day) of 0.08 mg/dL. The TC (72 h, time 3 day) was 96.4 mg/dL, the TG (72 h, time 3 day) was 88.4 mg/dL and the TP (72 h, time 3 day) was 5.4 g/dL. The gamma-GTP (72 h, time 3 day) was 1.4 IU/L, the TERMINAL_BW ([…], time 7 day) was 239.4 g and the TERMINAL_BW ([…], time 14 day) was 287 g. The TERMINAL_BW ([…], time 28 day) was 359.9 g, the APTT ([…], time 7 day) was 17.1 s and the Bas ([…], time 7 day) was 0%. For the same compound, the Eos ([…], time 7 day) was 0.6%, the Fbg ([…], time 7 day) was 278.2 mg/dL and the Hb ([…], time 7 day) was 12.6 g/dL. It also gave a Ht ([…], time 7 day) of 36.8%, a Lym ([…], time 7 day) of 74.4% and an MCH ([…], time 7 day) of 21.3 pg. For the same compound, the MCHC ([…], time 7 day) was 34.3%, the MCV ([…], time 7 day) was 62.3 fL and the Mono ([…], time 7 day) was 3.2%. For the same compound, the Neu ([…], time 7 day) was 21.4%, the PT ([…], time 7 day) was 12.4 s and the Plat ([…], time 7 day) was 117.3 x10_4/uL. It also gave an RBC ([…], time 7 day) of 591.2 x10_4/ul, a Ret ([…], time 7 day) of 6.9% and a WBC ([…], time 7 day) of 101.2 x10_2/uL. For the same compound, the APTT ([…], time 14 day) was 18.6 s, the Bas ([…], time 14 day) was 0% and the Eos ([…], time 14 day) was 0.6%. For the same compound, the Fbg ([…], time 14 day) was 288.4 mg/dL, the Hb ([…], time 14 day) was 13.4 g/dL and the Ht ([…], time 14 day) was 39.2%. It also gave a Lym ([…], time 14 day) of 78.4%, an MCH ([…], time 14 day) of 20.3 pg and an MCHC ([…], time 14 day) of 34.1%. It also gave an MCV ([…], time 14 day) of 59.5 fL, a Mono ([…], time 14 day) of 2.6% and a Neu ([…], time 14 day) of 17.8%. It also gave a PT ([…], time 14 day) of 12.2 s, a Plat ([…], time 14 day) of 118 x10_4/uL and an RBC ([…], time 14 day) of 658 x10_4/ul. It also gave a Ret ([…], time 14 day) of 5.1%, a WBC ([…], time 14 day) of 106.3 x10_2/uL and an APTT ([…], time 28 day) of 18.2 s. For the same compound, the Bas ([…], time 28 day) was 0%, the Eos ([…], time 28 day) was 1% and the Fbg ([…], time 28 day) was 295.8 mg/dL. For the same compound, the Hb ([…], time 28 day) was 14.6 g/dL, the Ht ([…], time 28 day) was 42.5% and the Lym ([…], time 28 day) was 73.2%. It also gave an MCH ([…], time 28 day) of 19.1 pg, an MCHC ([…], time 28 day) of 34.4% and an MCV ([…], time 28 day) of 55.5 fL. For the same compound, the Mono ([…], time 28 day) was 2.6%, the Neu ([…], time 28 day) was 23% and the PT ([…], time 28 day) was 12.7 s. It also gave a Plat ([…], time 28 day) of 96.5 x10_4/uL, an RBC ([…], time 28 day) of 765 x10_4/ul and a Ret ([…], time 28 day) of 2.5%. The WBC ([…], time 28 day) was 120.7 x10_2/uL, the KIDNEY_L ([…], time 7 day) was 1 g and the KIDNEY_R ([…], time 7 day) was 1 g. The KIDNEY_TOTAL ([…], time 7 day) was 2 g, the KIDNEY_L ([…], time 14 day) was 1.1 g and the KIDNEY_R ([…], time 14 day) was 1.1 g. The KIDNEY_TOTAL ([…], time 14 day) was 2.2 g, the KIDNEY_L ([…], time 28 day) was 1.5 g and the KIDNEY_R ([…], time 28 day) was 1.5 g. The KIDNEY_TOTAL ([…], time 28 day) was 2.9 g, the LIVER ([…], time 7 day) was 13.4 g and the LIVER ([…], time 14 day) was 15.2 g. The LIVER ([…], time 28 day) was 17.7 g, the A/G ([…], time 7 day) was 0.9 and the ALP ([…], time 7 day) was 1637 IU/L. It also gave an ALT ([…], time 7 day) of 44 IU/L, an AST ([…], time 7 day) of 65.2 IU/L and a BUN ([…], time 7 day) of 12.8 mg/dL. It also gave a CRE ([…], time 7 day) of 0.2 mg/dL, a Ca ([…], time 7 day) of 11.3 mg/dL and a Cl ([…], time 7 day) of 105.6 meq/L. For the same compound, the DBIL ([…], time 7 day) was 0.012 mg/dL, the GLC ([…], time 7 day) was 187.4 mg/dL and the IP ([…], time 7 day) was 7 mg/dL. For the same compound, the K ([…], time 7 day) was 4 meq/L, the LDH ([…], time 7 day) was 99.6 IU/L and the Na ([…], time 7 day) was 144.2 meq/L. The PL ([…], time 7 day) was 171.2 mg/dL, the RALB ([…], time 7 day) was 2.8 g/dL and the TBIL ([…], time 7 day) was 0.052 mg/dL. It also gave a TC ([…], time 7 day) of 88 mg/dL, a TG ([…], time 7 day) of 94.8 mg/dL and a TP ([…], time 7 day) of 6 g/dL. The gamma-GTP ([…], time 7 day) was 1 IU/L, the A/G ([…], time 14 day) was 0.8 and the ALP ([…], time 14 day) was 1442.4 IU/L. For the same compound, the ALT ([…], time 14 day) was 45.8 IU/L, the AST ([…], time 14 day) was 69.4 IU/L and the BUN ([…], time 14 day) was 15 mg/dL. It also gave a CRE ([…], time 14 day) of 0.2 mg/dL, a Ca ([…], time 14 day) of 10.8 mg/dL and a Cl ([…], time 14 day) of 106.4 meq/L. For the same compound, the DBIL ([…], time 14 day) was 0.01 mg/dL, the GLC ([…], time 14 day) was 185.2 mg/dL and the IP ([…], time 14 day) was 6.4 mg/dL. It also gave a K ([…], time 14 day) of 4 meq/L, an LDH ([…], time 14 day) of 63.2 IU/L and a Na ([…], time 14 day) of 144 meq/L. It also gave a PL ([…], time 14 day) of 180.4 mg/dL, an RALB ([…], time 14 day) of 2.8 g/dL and a TBIL ([…], time 14 day) of 0.04 mg/dL. It also gave a TC ([…], time 14 day) of 89.4 mg/dL, a TG ([…], time 14 day) of 123.2 mg/dL and a TP ([…], time 14 day) of 6.1 g/dL. For the same compound, the gamma-GTP ([…], time 14 day) was 1.2 IU/L, the A/G ([…], time 28 day) was 0.8 and the ALP ([…], time 28 day) was 1183.4 IU/L. It also gave an ALT ([…], time 28 day) of 42.8 IU/L, an AST ([…], time 28 day) of 65.4 IU/L and a BUN ([…], time 28 day) of 15.2 mg/dL. It also gave a CRE ([…], time 28 day) of 0.2 mg/dL, a Ca ([…], time 28 day) of 10.4 mg/dL and a Cl ([…], time 28 day) of 106.8 meq/L. It also gave a DBIL ([…], time 28 day) of 0.022 mg/dL, a GLC ([…], time 28 day) of 185.2 mg/dL and an IP ([…], time 28 day) of 5.6 mg/dL. The K ([…], time 28 day) was 4 meq/L, the LDH ([…], time 28 day) was 73 IU/L and the Na ([…], time 28 day) was 143.4 meq/L. The PL ([…], time 28 day) was 165.4 mg/dL, the RALB ([…], time 28 day) was 2.7 g/dL and the TBIL ([…], time 28 day) was 0.048 mg/dL. The TC ([…], time 28 day) was 79.8 mg/dL, the TG ([…], time 28 day) was 154.2 mg/dL and the TP ([…], time 28 day) was 6.2 g/dL. For the same compound, the gamma-GTP ([…], time 28 day) was 1.2 IU/L.
